Like-named read-outs stand apart in the source and are kept apart here.
Columns and labels:
[1] = biological target: Recombinant human BRD4(1-477) (Homo sapiens (Human), UniProt O60885); assay: BRD4 TR-FRET biochemical IC50 assay; assay type: binding; settings: TR-FRET, tetra-acetylated histone peptide; read-out: BRD4 IC50
MV4-11 = MV4-11 (3 Days) EC50; assay type: cell-based

EC50 (MV4-11; Homo sapiens, MV4-11, 72 h) | SMILES | IC50 [1] | further results
 | Cc1noc(C)c1-c1ccc2c(c1)C(O)(c1ccccc1)C(=O)N2 (single isomer, unassigned) [Compound 1.1a, 5-(3,5-dimethylisoxazol-4-yl)-3-hydroxy-3-phenylindolin-2-one] | 35 nM | EC50 (MV4-11; Homo sapiens, 72 h): 58 nM
 | Cc1noc(C)c1-c1ccc2c(c1)C(N)(c1ccccc1)C(=O)N2 (single isomer, unassigned) [Compound 2.2a, 3-amino-5-(3,5-dimethylisoxazol-4-yl)-3-phenylindolin-2-one] | 24 nM | EC50 (MV4-11): 159 nM
 | Cc1noc(C)c1-c1ccc2c(c1)C(N)(c1ccccc1)C(=O)N2 (single isomer, unassigned) [Compound 2.2b, 3-amino-5-(3,5-dimethylisoxazol-4-yl)-3-phenylindolin-2-one] | 3600 nM | EC50 (MV4-11): > 10000 nM
54 nM | Cc1noc(C)c1-c1ccc2c(c1)C(c1ccsc1)(N1CCC[C@@H](O)C1)C(=O)N2 (single isomer, unassigned) [Compound 4.9a] |  | 
 | Cc1noc(C)c1-c1ccc2c(c1)C(c1ccsc1)(N1CCC[C@@H](O)C1)C(=O)N2 (single isomer, unassigned) [Compound 4.9b] |  | EC50 (MV4-11): 39 nM
72 nM | Cc1noc(C)c1-c1ccc2c(c1)C(c1ccsc1)(N1CCC[C@H](O)C1)C(=O)N2 (single isomer, unassigned) [Compound 4.10a] |  | 
 | Cc1noc(C)c1-c1ccc2c(c1)C(c1ccsc1)(N1CCC[C@H](O)C1)C(=O)N2 (single isomer, unassigned) [Compound 4.10b] |  | EC50 (MV4-11): 56 nM
934 nM | C=CCCC1(O)C(=O)Nc2ccc(-c3c(C)noc3C)cc21 (stereo not drawn) [Compound 1.24, 3-(but-3-enyl)-5-(3,5-dimethylisoxazol-4-yl)-3-hydroxyindolin-2-one] |  | 
1540 nM | C=CCCCC1(O)C(=O)Nc2ccc(-c3c(C)noc3C)cc21 (stereo not drawn) [Compound 1.25, 5-(3,5-dimethylisoxazol-4-yl)-3-hydroxy-3-(pent-4-enyl)indolin-2-one] |  | 
307 nM | Cc1noc(C)c1-c1ccc2c(c1)C(OCCO)(C1CCCCC1)C(=O)N2 (stereo not drawn) [Compound 1.33, 3-Cyclohexyl-5-(3,5-dimethylisoxazol-4-yl)-3-(2-hydroxyethoxy)indolin-2-one] |  | 
95 nM | Cc1noc(C)c1-c1ccc2c(c1)C(c1ccccc1)(N1CCCC(O)C1)C(=O)N2 (stereo not drawn) [Compound 2.15, 5-(3,5-dimethylisoxazol-4-yl)-3-(3-hydroxypiperidin-1-yl)-3-phenylindolin-2-one] |  | 
363 nM | Cc1noc(C)c1-c1ccc2c(c1)C(c1ccccc1)(N1CCC[C@@H](O)C1)C(=O)N2 (stereo partly drawn) [Compound 2.17, 5-(3,5-dimethylisoxazol-4-yl)-3-((R)-3-hydroxypiperidin-1-yl)-3-phenylindolin-2-one] |  | 
204 nM | Cc1noc(C)c1-c1ccc2c(c1)C(C1CCCCC1)(N1CCN(C)CC1)C(=O)N2 (stereo not drawn) [Compound 2.26, 3-cyclohexyl-5-(3,5-dimethylisoxazol-4-yl)-3-(4-methylpieprazin-1-yl)indolin-2-one] |  | 
596 nM | Cc1noc(C)c1-c1ccc2c(c1)C(C1CCCC1)(N1CCN(C)CC1)C(=O)N2 (stereo not drawn) [Compound 2.36, 3-cyclopentyl-5-(3,5-dimethylisoxazol-4-yl)-3-(4-methylpiperazin-1-yl)indolin-2-one] |  | 
 | Cc1noc(C)c1-c1ccc2c(c1)C(c1ccccc1)(N1CCN(CCO)CC1)C(=O)N2 (stereo not drawn) [Compound 2.48, 5-(3,5-Dimethylisoxazol-4-yl)-3-(4-(2-hydroxyethyl)piperazin-1-yl)-3-phenylindolin-2-one] | 80 nM | 
 | Cc1noc(C)c1-c1ccc2c(c1)C(c1ccccc1)(N1CCN(CCCO)CC1)C(=O)N2 (stereo not drawn) [Compound 2.49, 5-(3,5-Dimethylisoxazol-4-yl)-3-(4-(3-hydroxypropyl)piperazin-1-yl)-3-phenylindolin-2-one] | 84 nM | 
 | Cc1noc(C)c1-c1ccc2c(c1)C(c1ccccc1)(N1CCC[C@H]1CO)C(=O)N2 (stereo partly drawn) [Compound 2.53, 5-(3,5-Dimethylisoxazol-4-yl)-3-((s)-2-(hydroxymethyl)pyrrolidin-1-yl)-3-phenylindolin-2-one] | 90 nM | 
 | Cc1noc(C)c1-c1ccc2c(c1)C(c1ccccc1)(N1CCC[C@@H]1CO)C(=O)N2 (stereo partly drawn) [Compound 2.55, 5-(3,5-Dimethylisoxazol-4-yl)-3-((r)-2-(hydroxymethyl)pyrrolidin-1-yl)-3-phenylindolin-2-one] | 110 nM | 
 | COC(=O)[C@@H](Cc1cnc[nH]1)NC1(c2ccccc2)C(=O)Nc2ccc(-c3c(C)noc3C)cc21 (stereo partly drawn) [Compound 2.56, (2R)-Methyl 2-(5-(3,5-dimethylisoxazol-4-yl)-2-oxo-3-phenylindolin-3-ylamino)-3-(1h-imidazol-5-yl)propanoate] | 260 nM | 
 | COC(=O)[C@H](Cc1cnc[nH]1)NC1(c2ccccc2)C(=O)Nc2ccc(-c3c(C)noc3C)cc21 (stereo partly drawn) [Compound 2.57, (2S)-Methyl 2-(5-(3,5-dimethylisoxazol-4-yl)-2-oxo-3-phenylindolin-3-ylamino)-3-(1h-imidazol-5-yl)propanoate] | 90 nM | 
 | Cc1noc(C)c1-c1ccc2c(c1)C(N)(c1ccc(F)cc1)C(=O)N2 (stereo not drawn) [Compound 2.59, 3-amino-5-(3,5-dimethylisoxazol-4-yl)-3-(4-fluorophenyl)indolin-2-one] | 97 nM | 
 | Cc1noc(C)c1-c1ccc2c(c1)C(CC(=O)O)(c1ccccc1)C(=O)N2 (stereo not drawn) [Compound 3.4, 2-(5-(3,5-dimethylisoxazol-4-yl)-2-oxo-3-phenylindolin-3-yl)acetic acid] | 6100 nM | 
 | CC(=O)CC1(O)C(=O)Nc2ccc(-c3c(C)noc3C)cc21 (stereo not drawn) [Compound 4.2, 5-(3,5-dimethylisoxazol-4-yl)-3-hydroxy-3-(2-oxopropyl)indolin-2-one] | 670 nM | 
 | Cc1noc(C)c1-c1ccc2c(c1)C(NCCO)(c1ccsc1)C(=O)N2 (stereo not drawn) [Compound 4.3, 5-(3,5-Dimethylisoxazol-4-yl)-3-(2-hydroxyethylamino)-3-(thiophen-3-yl)indolin-2-one] | 49 nM | 
 | Cc1noc(C)c1-c1ccc2c(c1)C(N)(c1ccsc1)C(=O)N2 (stereo not drawn) [Compound 4.4, 3-AMINO-5-(3,5-DIMETHYLISOXAZOL-4-YL)-3-(THIOPHEN-3-YL)INDOLIN-2-ONE] | 400 nM | 
 | Cc1noc(C)c1-c1ccc2c(c1)C(c1ccsc1)(N1CCC(O)CC1)C(=O)N2 (stereo not drawn) [Compound 4.5, 5-(3,5-DIMETHYLISOXAZOL-4-YL)-3-(4-HYDROXYPIPERIDIN-1-YL)-3-(THIOPHEN-3-YL)INDOLIN-2-ONE] | 25 nM | 
42 nM | Cc1noc(C)c1-c1ccc2c(c1)C(c1ccsc1)(N1CCCC(O)C1)C(=O)N2 (stereo not drawn) [Compound 4.8, 5-(3,5-dimethylisoxazol-4-yl)-3-(3-hydroxypiperidin-1-yl)-3-(thiophen-3-yl)indolin-2-one] |  | 
 | Cc1noc(C)c1-c1ccc2c(c1)C(c1ccsc1)C(=O)N2 (stereo not drawn) [Compound 4.11, 5-(3,5-Dimethylisoxazol-4-yl)-3-(thiophen-3-yl)indolin-2-one] | 120 nM | 
 | COc1cc(-c2c(C)noc2C)cc2c1NC(=O)C2(O)c1ccccc1 (stereo not drawn) [Compound 5.1, 5-(3,5-Dimethylisoxazol-4-yl)-3-hydroxy-7-methoxy-3-phenylindolin-2-one] | 450 nM | 

SMILES | EC50 (MV4-11; Homo sapiens, MV4-11, 72 h) | IC50 [1] | further results
Cc1noc(C)c1-c1ccc2c(c1)C(N)(c1ccccc1)C(=O)N2 (stereo not drawn) [Compound 2.2, 3-amino-5-(3,5-dimethylisoxazol-4-yl)-3-phenylindolin-2-one] | 283 nM |  | 

Reference: patent publication US9393232B2 (BeiGene, Ltd., priority 2013, dated 2016)
